The text below walks through data of patent US20050142231A1, “Pharmaceutical activity and manufacturing method of the five-plant compound hypolipemic products” (priority 2003, published 2005).

This assay relates to lecithin cholesterol acyltransferase (LCAT). Description: Effect upon activity of lecithin cholesterol acyltransferase in rats suffering from hyperlipemia. Format: in vivo, rat. The source says: The original lecithin and cholesterol in the serum were used as substrates, which were kept warm for some time. Because of the effect of lecithin cholesterol acyltransferase (LCAT), cholesterolester (CE) in serum was increased, but free cholesterol (FC) decreased. Then cholesterol was oxidized by cholesterol oxidase and hydrogen peroxide was produced. The latter reacted with […] and phenol under the action of horseradish peroxidase to produce red quinone imide, which can be used for colorimetric analysis to determine the content of FC. The decrease in FC, ie, the esterification of cholesterol can indicate the activity of LCAT in magnitude. […]
(2) Two portions of 0.1 ml fresh serum were taken from each animal of each group and were preheated in water bath at 37° C. for five minutes, to one portion of which 3 ml cholesterol enzyme-linked reagent application solution was added (30 ml enzyme reaction solution for 1 ml cholesterol enzyme-linked reagent), mixed thoroughly and heated in water bath at 37° C. for 15 minutes while blank control tube and standard tube (0.05 ml standard cholesterol absolute alcohol solution) were made. […] OD was read and FC content was calculated in terms of Beer's law, which was the serum FC content before reaction. […] Then FC content was determined as above, expressed as OD, which was the serum FC content after reaction. […]

`CCOC(=O)C(C)(C)Oc1ccc(Cl)cc1` [Astromid-s]: under “0.13 g/kg”, the “Effect on activity of LCAT (in words)” value is “not noticeable”. The “LCAT activity (TC esterification nmol/ml/h)” value (hyperlipemia rat serum, dose 0.13 g/kg for seven days, x ± SD) amounted to 536 ± 277 nmol/mL/h.
